TGI and GI50 data for 7 compounds are collected here from PubChem BioAssay (NCI).

Common to all, as to experiment: inhibition of tumour cell growth, NCI panel, 48 h
Assay [1] concerns 786-0 renal.
The subject of assay [2] is A549 NSCLC.
For assay [3], the system named is CCRF-CEM leukemia.
Assay [4] concerns K-562 leukemia.
The test system of assay [5] is MCF7 breast.
The subject of assay [6] is SK-MEL-28 melanoma.
The subject of assay [7] is SN12C renal.
Assay [8] deals with SR leukemia.
Assay [9] deals with U251 CNS.
In assay [10] the test system is UO-31 renal.

Each structure is given as a SMILES string.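 Dose response: 5 concentrations. Exposure: 48 h. Format: 96-well plates. Endpoint: linear interpolation; highest concentration if not reached. The concentration for 50% growth inhibition is given as GI50. At the TGI there is no net growth.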

`CN(C)CCNc1ccc(CO)c2oc3ccc(O)cc3c(=O)c12`: the TGI in [1] stood at 46.1 µM; in assay [2], 63.9 µM; in assay [3] it was 34.1 µM; in assay [4] it was 32.4 µM; in [5] it was 58.1 µM; in [6] it was 32 µM. The TGI in assay [7] was greater than 66.3 µM; in [8] it was 4.36 µM; in assay [9] it was 45.7 µM; in assay [10], 31.3 µM.
As to `C/C(=N\Nc1ccc(Cl)cn1)c1ccc2ccccc2n1`, the GI50 in [1] was 2440 nM; in assay [2] it was 4220 nM; in [3], 513 nM; in assay [4], 3130 nM; in [5], 2850 nM; in assay [6] it was 3.6 µM. Also, the GI50 in assay [7] was 3.19 µM; in assay [8] it was 1680 nM; in [9], 2830 nM; in assay [10], 1740 nM. The TGI was 7.55 µM in [1]; greater than 100 µM in assay [2]; greater than 100 µM in assay [3]; greater than 100 µM in assay [4]; greater than 100 µM in [5]; greater than 100 µM in [6]. Moreover, the TGI in [7] was greater than 100 µM; in assay [8], 36.1 µM; in assay [9], greater than 100 µM; in assay [10], 12.9 µM.
As to `Cc1cc(C)c(NC(=O)c2sc3nc4c(cc3c2N)C(=O)CCC4)c(C)c1`, the GI50 in assay [1] was 6850 nM; in [2], 2510 nM; in assay [3], 3150 nM; in [4] it was 1900 nM; in assay [5], 2090 nM; in assay [6] it was 5.9 µM. In addition, the GI50 was 7.42 µM in [7], 3000 nM in assay [8], 3490 nM in assay [9] and 9040 nM in [10]. Further, the TGI in assay [1], in assay [2], in assay [3], in [4], in [5] and in assay [6] was greater than 100 µM throughout. For the same compound, the TGI in [7] was greater than 100 µM; in [8] it was greater than 55.3 µM; in [9], greater than 100 µM; in [10] it was greater than 100 µM.
`c1ccc(Sc2ccc(Cc3nc4cc5ccccc5cc4[nH]3)cc2)cc1`: the GI50 in assay [1] was 4770 nM; in assay [2] it was 2330 nM; in assay [3], 1420 nM; in assay [4], 279 nM; in [5] it was 6730 nM; in [6], 37.7 µM. Also, the GI50 is 16.8 µM in assay [7], 26000 nM in assay [8], 3680 nM in assay [9] and 20700 nM in assay [10]. The TGI in [1] was greater than 63.8 µM; in assay [2] it was greater than 61.4 µM; in [3], greater than 59 µM; in assay [4], greater than 47.8 µM; in assay [5], greater than 100 µM; in assay [6], greater than 100 µM. Further, the TGI in assay [7] was 76.5 µM; in assay [8], greater than 100 µM; in [9], greater than 57.9 µM; in assay [10], greater than 100 µM.
With `COCC[C@H]1CCC/C=C/[C@@H]2C[C@H](O)C[C@H]2[C@H](O)/C=C/C(=O)O1`, the GI50 in [1] was 23.4 nM; in assay [2], 113 nM; in [3] it was 322 nM; in assay [4], 313 nM; in assay [5] it was 43.7 nM; in [6], 0.0345 µM. Also, the GI50 is 0.274 µM in assay [7], 141 nM in assay [8], 166 nM in [9] and 56.3 nM in assay [10]. In addition, the TGI in [1] was 0.054 µM; in [2] it was greater than 100 µM; in [3], greater than 100 µM; in assay [4], greater than 100 µM; in assay [5], 0.171 µM; in assay [6], 0.153 µM. Besides, the TGI in assay [7] and in [9] was greater than 100 µM in each case.
Take `NS(=O)(=O)c1ccc(-c2ccc3c(NC(=O)C4CC4)n[nH]c3c2)cc1`: the GI50 in assay [1] was greater than 25000 nM; in [2] it was greater than 25000 nM; in [3] it was greater than 25000 nM; in assay [4], greater than 25000 nM; in assay [5], greater than 25000 nM; in assay [6] it was greater than 25 µM. Further, the GI50 in assay [7] is greater than 25 µM; in [8] it was greater than 25000 nM; in [9] it was greater than 25000 nM; in assay [10] it was greater than 25000 nM. Moreover, the TGI in [1], in assay [2], in assay [3], in assay [4], in assay [5] and in [6] was greater than 25 µM each time. Besides, the TGI in assay [7], in assay [8], in assay [9] and in assay [10] was greater than 25 µM in each case.
Regarding `COc1cc2ncnc(-n3ncc4cc(NC(=O)Nc5ccccc5)ccc43)c2cc1OC`, the GI50 in assay [1] is 1300 nM; in assay [2], 1790 nM; in assay [3] it was 2560 nM; in assay [4], 2860 nM; in assay [5], 234 nM; in assay [6], 1.38 µM. The GI50 in assay [7] is 1.14 µM; in [8] it was 2030 nM; in assay [9], 1270 nM; in assay [10] it was 499 nM. The TGI in assay [1] was 4.34 µM; in assay [2], 8.74 µM; in [3] it was 13.6 µM; in assay [4] it was 15.5 µM; in assay [5] it was 1.9 µM; in [6], 4.33 µM. In addition, the TGI in assay [7] was 5.78 µM; in assay [8] it was 15.3 µM; in [9], 3.23 µM; in assay [10], 2.84 µM.
